row,Structure (SMILES),melting point
1,"O=C(Cn1c2c(c3c4c(ccc31)OCC=C4)CCN(Cc1ccccc1)CC2)Nc1ccccc1 [Example 9, 2-(10-benzyl-3,8,9,10,11,12-hexahydro-7H-azepino[4.5-b]pyrano[3,2-e]indol-7-yl)-N-phenylacetamide]",134 to 136 °C
2,Cl.c1cc2[nH]c3c(c2c2c1OCCC2)CCNCC3,> 283 °C (dec.)
3,Cl.O=C(Cn1c2c(c3c4c(ccc31)OCCC4)CCNCC2)Nc1ccccc1,> 250 °C (dec.)

# Other lines, results leading:
row,melting point,Structure (SMILES)
1,157 to 160 °C,C1=Cc2c(ccc3[nH]c4c(c23)CCN(Cc2ccccc2)CC4)OC1
2,112 to 114 °C,"Cn1c2c(c3c4c(ccc31)OCC=C4)CCN(Cc1ccccc1)CC2 [Example 1, 10-Benzyl-7-methyl-7,8,9,10,11,12-hexahydro-3H-azepino[4,5-]pyrano[3,2-e]indole]"
3,185 to 187 °C,O=C(O)Cn1c2c(c3c4c(ccc31)OCC=C4)CCN(Cc1ccccc1)CC2 [Example 8]

# Source: patent publication US20030216378A1, “Azepino[4,5-b]pyrano[3,2-e]indoles” (priority 2000, published 2003)
